Measurements as given in ChEMBL document CHEMBL2163302, “Allyl m-trifluoromethyldiazirine mephobarbital: an unusually potent enantioselective and photoreactive barbiturate general anesthetic” (J Med Chem, 2012).
pEC50, pIC50: −log10 of the molar value. ≈ marks a conversion by molar mass, not a printed value.

How the values were obtained:
[1] = tested on: Xenopus laevis; assay: Anesthetic activity in Xenopus laevis tadpoles assessed as loss of righting reflexes; format: functional, organism-based; settings: Tadpole
[2] = molecular target: T1, Gamma-aminobutyric acid receptor subunit alpha-1 (Homo sapiens) (UniProt P14867); settings: HEK293S, 200 uM
T1 sequence (whole entry): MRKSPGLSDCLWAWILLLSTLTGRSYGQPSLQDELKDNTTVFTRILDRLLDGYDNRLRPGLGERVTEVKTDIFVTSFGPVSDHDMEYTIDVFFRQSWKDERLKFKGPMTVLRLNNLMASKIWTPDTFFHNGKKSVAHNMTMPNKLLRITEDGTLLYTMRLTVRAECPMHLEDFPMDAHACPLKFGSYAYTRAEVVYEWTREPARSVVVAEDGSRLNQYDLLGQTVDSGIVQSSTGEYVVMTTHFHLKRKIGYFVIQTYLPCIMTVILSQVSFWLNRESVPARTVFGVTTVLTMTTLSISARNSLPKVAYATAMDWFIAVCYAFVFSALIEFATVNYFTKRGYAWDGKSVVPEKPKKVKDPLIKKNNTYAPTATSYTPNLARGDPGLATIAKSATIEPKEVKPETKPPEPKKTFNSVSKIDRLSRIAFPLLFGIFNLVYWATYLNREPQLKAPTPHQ

[3] = molecular target: T2, Gamma-aminobutyric acid receptor subunit beta-3 (Homo sapiens) (UniProt P28472); settings: HEK293S, 200 uM
T2 sequence (whole entry): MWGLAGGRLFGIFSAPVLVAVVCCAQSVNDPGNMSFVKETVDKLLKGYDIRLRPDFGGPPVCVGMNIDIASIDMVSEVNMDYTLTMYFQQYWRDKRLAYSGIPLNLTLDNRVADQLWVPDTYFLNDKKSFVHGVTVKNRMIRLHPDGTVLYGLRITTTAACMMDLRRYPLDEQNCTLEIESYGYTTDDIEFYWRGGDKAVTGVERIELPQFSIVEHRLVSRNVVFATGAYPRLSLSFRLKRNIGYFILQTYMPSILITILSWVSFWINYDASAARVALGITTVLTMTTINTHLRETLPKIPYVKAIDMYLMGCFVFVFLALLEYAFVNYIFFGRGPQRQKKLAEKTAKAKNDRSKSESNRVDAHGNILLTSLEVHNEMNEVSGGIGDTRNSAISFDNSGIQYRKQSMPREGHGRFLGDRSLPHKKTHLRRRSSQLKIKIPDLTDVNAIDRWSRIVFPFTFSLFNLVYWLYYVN

[4] = molecular target: GABA-A receptor; alpha-1/beta-2/gamma-2 (Homo sapiens) (UniProt P14867+P47870+P18507); settings: Oocyte, 80 uM
[5] = Stability in 0.01 M Tris/HCl buffer at pH 7.4 at 4 degC days by HPLC; format: physicochemical
[6] = Aqueous solubility in 0.01 M Tris/HCl buffer at pH 7.4 by HPLC; format: physicochemical
[7] = molecular target: T3, Gamma-aminobutyric acid receptor subunit beta-3 (Homo sapiens, UniProt P28472); assay: biochemical
T3 sequence (P28472 whole entry): T2 sequence (whole entry)

**Q.** With `C=CC[C@@]1(c2cccc(C3(C(F)(F)F)N=N3)c2)C(=O)NC(=O)N(C)C1=O` as the compound, how does the pEC50 [1] read?
**A.** Its pEC50 is 5.43.

**Q.** What about the inhibition [2] of the same compound?
**A.** The inhibition was over 90%.

**Q.** And the inhibition [3]?
**A.** Its inhibition is over 90%.

**Q.** With `C=CC[C@]1(c2cccc(C3(C(F)(F)F)N=N3)c2)C(=O)NC(=O)N(C)C1=O` as the compound, how does the pEC50 [1] read?
**A.** Its pEC50 is 4.42.

**Q.** What about the inhibition [4] of the same compound?
**A.** Its inhibition is 40%.

**Q.** With `C=CCC1(c2cccc(C3(C(F)(F)F)N=N3)c2)C(=O)NC(=O)N(C)C1=O` (racemic) as the compound, how does the Stability [5] read?
**A.** The Stability was 2.5 days.

**Q.** What about the solubility ([6]; buffer) of the same compound?
**A.** Its solubility is 80 µM (≈ 29.3 µg/mL).

**Q.** For `CCC1(c2ccccc2)C(=O)NC(=O)N(C)C1=O` (stereo not given) [MEPHOBARBITAL], which solubility ([6]; 0.01 M Tris/HCl buffer, read-out: solubility) is on record?
**A.** Its solubility is 600 µM (≈ 148 µg/mL).

**Q.** What does the source list for `CCCC(C)C1(CC)C(=O)NC(=O)NC1=O` (stereo not given) [PENTOBARBITAL]?
**A.** pEC50 [1]: 4.19; pIC50 [7]: 4.06
